Source: PubChem BioAssay (NCI)
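How tested: cells in 96-well plates exposed to compound for 48 hours at five concentrations. TGI denotes the concentration required for complete inhibition of growth.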

Columns and labels:
Experiment in all cases: NCI tumour cell line growth inhibition, 48 h
RPMI-8226 leukemia = system: RPMI-8226 leukemia
MDA-N = system: MDA-N
NCI-H522 lung = system: NCI-H522 lung
M14 melanoma = system: M14 melanoma
SNB-19 CNS = system: SNB-19 CNS
HCC-2998 colon = system: HCC-2998 colon
SK-MEL-5 melanoma = system: SK-MEL-5 melanoma
OVCAR-5 ovarian = system: OVCAR-5 ovarian
MOLT-4 leukemia = system: MOLT-4 leukemia
RXF 393 renal = system: RXF 393 renal
SNB-75 CNS = system: SNB-75 CNS
NCI-H226 lung = system: NCI-H226 lung
A498 renal = system: A498 renal
HT29 colon = system: HT29 colon
UACC-62 melanoma = system: UACC-62 melanoma
TK-10 renal = system: TK-10 renal
OVCAR-8 ovarian = system: OVCAR-8 ovarian
SK-MEL-28 melanoma = system: SK-MEL-28 melanoma
HCT-15 colon = system: HCT-15 colon
SF-295 CNS = system: SF-295 CNS
UACC-257 melanoma = system: UACC-257 melanoma
CAKI-1 renal = system: CAKI-1 renal
MCF7 breast = system: MCF7 breast
NCI/ADR-RES ovarian = system: NCI/ADR-RES ovarian
KM12 colon = system: KM12 colon
HOP-92 NSCLC = system: HOP-92 NSCLC
SW-620 colon = system: SW-620 colon
LOX IMVI melanoma = system: LOX IMVI melanoma
SK-MEL-2 melanoma = system: SK-MEL-2 melanoma
NCI-H23 lung = system: NCI-H23 lung
CCRF-CEM leukemia = system: CCRF-CEM leukemia
U251 CNS = system: U251 CNS
MALME-3M melanoma = system: MALME-3M melanoma
HS 578T breast = system: HS 578T breast
MDA-MB-231 breast = system: MDA-MB-231 breast
SF-539 CNS = system: SF-539 CNS
A549 NSCLC = system: A549 NSCLC
IGROV1 ovarian = system: IGROV1 ovarian
786-0 renal = system: 786-0 renal
DU-145 prostate = system: DU-145 prostate
BT-549 breast = system: BT-549 breast
PC-3 prostate = system: PC-3 prostate
SN12C renal = system: SN12C renal
HCT-116 colon = system: HCT-116 colon
NCI-H460 lung = system: NCI-H460 lung
OVCAR-4 ovarian = system: OVCAR-4 ovarian
COLO 205 colon = system: COLO 205 colon
SK-OV-3 ovarian = system: SK-OV-3 ovarian
ACHN renal = system: ACHN renal
K-562 leukemia = system: K-562 leukemia
HL-60(TB) leukemia = system: HL-60(TB) leukemia
HOP-62 NSCLC = system: HOP-62 NSCLC
SR leukemia = system: SR leukemia
T-47D breast = system: T-47D breast
EKVX NSCLC = system: EKVX NSCLC
MDA-MB-435 = system: MDA-MB-435
OVCAR-3 ovarian = system: OVCAR-3 ovarian
UO-31 renal = system: UO-31 renal
SF-268 CNS = system: SF-268 CNS

COCn1c2ccc(OC(C)=O)cc2c2c(=O)oc(N(C)C)nc21
TGI (RPMI-8226 leukemia): > 100 µM | TGI (MDA-N): > 100 µM | TGI (NCI-H522 lung): > 100 µM | TGI (M14 melanoma): > 100 µM | TGI (SNB-19 CNS): > 100 µM | TGI (HCC-2998 colon): > 100 µM | TGI (SK-MEL-5 melanoma): > 100 µM | TGI (OVCAR-5 ovarian): > 100 µM | TGI (MOLT-4 leukemia): > 100 µM | TGI (RXF 393 renal): > 100 µM | TGI (SNB-75 CNS): > 100 µM | TGI (NCI-H226 lung): > 100 µM | TGI (A498 renal): > 100 µM | TGI (HT29 colon): > 100 µM | TGI (UACC-62 melanoma): > 100 µM | TGI (TK-10 renal): > 100 µM | TGI (OVCAR-8 ovarian): > 100 µM | TGI (SK-MEL-28 melanoma): > 100 µM | TGI (HCT-15 colon): > 100 µM | TGI (SF-295 CNS): > 100 µM | TGI (UACC-257 melanoma): > 100 µM | TGI (CAKI-1 renal): > 100 µM | TGI (MCF7 breast): > 100 µM | TGI (NCI/ADR-RES ovarian): > 100 µM | TGI (KM12 colon): > 100 µM | TGI (HOP-92 NSCLC): > 100 µM | TGI (SW-620 colon): > 100 µM | TGI (LOX IMVI melanoma): > 100 µM | TGI (SK-MEL-2 melanoma): > 100 µM | TGI (NCI-H23 lung): > 100 µM | TGI (CCRF-CEM leukemia): > 100 µM | TGI (U251 CNS): > 100 µM | TGI (MALME-3M melanoma): > 100 µM | TGI (HS 578T breast): > 100 µM | TGI (MDA-MB-231 breast): > 100 µM | TGI (SF-539 CNS): > 100 µM | TGI (A549 NSCLC): > 100 µM | TGI (IGROV1 ovarian): > 100 µM | TGI (786-0 renal): > 100 µM | TGI (DU-145 prostate): > 100 µM | TGI (BT-549 breast): > 100 µM | TGI (PC-3 prostate): > 100 µM | TGI (SN12C renal): > 100 µM | TGI (HCT-116 colon): > 100 µM | TGI (NCI-H460 lung): > 100 µM | TGI (OVCAR-4 ovarian): > 100 µM | TGI (COLO 205 colon): > 100 µM | TGI (SK-OV-3 ovarian): > 100 µM | TGI (ACHN renal): > 100 µM | TGI (K-562 leukemia): > 100 µM | TGI (HL-60(TB) leukemia): > 100 µM | TGI (HOP-62 NSCLC): > 100 µM | TGI (SR leukemia): > 100 µM | TGI (T-47D breast): > 100 µM | TGI (EKVX NSCLC): > 100 µM | TGI (MDA-MB-435): > 100 µM

COC(=O)C1=CSC2(S1)C(C(=O)OC)=CSc1c2ssc1=Nc1ccccc1 (stereo unspecified)
TGI (RPMI-8226 leukemia): 2.87 µM | TGI (MDA-N): > 100 µM | TGI (OVCAR-3 ovarian): > 100 µM | TGI (NCI-H522 lung): 3.4 µM | TGI (M14 melanoma): 5.13 µM | TGI (SNB-19 CNS): 8.71 µM | TGI (HCC-2998 colon): 4.25 µM | TGI (SK-MEL-5 melanoma): 9.07 µM | TGI (OVCAR-5 ovarian): 17.7 µM | TGI (MOLT-4 leukemia): 3.55 µM | TGI (RXF 393 renal): 6.12 µM | TGI (SNB-75 CNS): 6.09 µM | TGI (A498 renal): 6.54 µM | TGI (UO-31 renal): > 100 µM | TGI (HT29 colon): 5.85 µM | TGI (UACC-62 melanoma): 3.52 µM | TGI (TK-10 renal): 10.4 µM | TGI (OVCAR-8 ovarian): 6.23 µM | TGI (SK-MEL-28 melanoma): 5.76 µM | TGI (SF-295 CNS): 7.09 µM | TGI (UACC-257 melanoma): 7.26 µM | TGI (CAKI-1 renal): 32.9 µM | TGI (MCF7 breast): > 100 µM | TGI (NCI/ADR-RES ovarian): 3.8 µM | TGI (KM12 colon): 10.1 µM | TGI (SW-620 colon): 8.76 µM | TGI (LOX IMVI melanoma): 4.1 µM | TGI (SK-MEL-2 melanoma): 7.36 µM | TGI (NCI-H23 lung): 8.43 µM | TGI (CCRF-CEM leukemia): 7.96 µM | TGI (U251 CNS): 10.1 µM | TGI (MALME-3M melanoma): 4.95 µM | TGI (HS 578T breast): 8.34 µM | TGI (MDA-MB-231 breast): 4.79 µM | TGI (SF-539 CNS): 2.96 µM | TGI (A549 NSCLC): 14.6 µM | TGI (IGROV1 ovarian): 4.83 µM | TGI (786-0 renal): 3.87 µM | TGI (DU-145 prostate): 16.2 µM | TGI (BT-549 breast): 22.6 µM | TGI (PC-3 prostate): > 100 µM | TGI (SF-268 CNS): > 100 µM | TGI (SN12C renal): 4.3 µM | TGI (HCT-116 colon): 4.06 µM | TGI (NCI-H460 lung): > 100 µM | TGI (OVCAR-4 ovarian): 8.06 µM | TGI (COLO 205 colon): 4.37 µM | TGI (SK-OV-3 ovarian): 9.9 µM | TGI (ACHN renal): 6.57 µM | TGI (K-562 leukemia): 7.38 µM | TGI (HOP-62 NSCLC): 8.67 µM | TGI (SR leukemia): 3.56 µM | TGI (T-47D breast): > 100 µM | TGI (EKVX NSCLC): > 100 µM | TGI (MDA-MB-435): 5.09 µM
